Measured values reported in patent US7938981B2, “Deicing and heat transfer fluid compositions” (Bioamber S.A.S., priority 2009, dated 2011).
Where two headings read alike, the source gives them in different places.

Tests used:
[1] = 25% (wt.) concentration in water; cited from earlier work
[2] = Biological Oxygen Demand (BOD5), 5 day test; details: 50% (wt.) concentration in water, ratio BOD5 to COD
Text: The oxygen demand of a compound during chemical oxidation and biological degradation is an indication of the persistence of the chemical in the environment. […] BOD is the amount of oxygen required for biological oxidation by bacteria growing under aerobic conditions. The ratio of BOD to COD can be used to assess whether a compound is readily biodegradable. When BOD5 is expressed as a percentage of COD, a BOD5 that is <1% of COD indicates a relatively nonbiodegradable compound and >10% of COD indicates a relatively degradable compound (the subscript “5” denotes a 5 day test).

[3] = 50% (wt.) concentration in water, in five days, value with literature reference 17, cited from earlier work

Row | SMILES | Freezing point [1] | Biodegradability (BOD5/COD)% [2] | Biodegradability (BOD5/COD)% ([2]; listed as Potassium Succinate) | Biodegradability (BOD5/COD)% ([2]; listed as succinate) | Biodegradability (BOD5/COD)% ([3]; listed as Potassium formate) | Biodegradability (BOD5/COD)% ([3]; listed as potassium formate)
1 | OCCO [Ethylene Glycol] | −12.0^20 °C | 61% | – | – | – | –
2 | CC(O)CO (stereo not drawn) [Propylene Glycol] | −11.0^21 °C | 59% | – | – | – | –
3 | O=C([O-])CCC(=O)[O-].[K+].[K+] [Test No. 1, potassium succinate] | −12.5^14 °C | – | 68% | highly biodegradable | – | –
4 | CC(=O)[O-].[K+] [Test No. 2, potassium acetate] | −18.0^14 °C | highly biodegradable | – | – | – | –
5 | O=C[O-].[K+] [Test No. 3, potassium formate] | −15.0^17 °C | – | – | – | 100%^17 | 100%
